Data from patent US9204653B2, “5-fluoro pyrimidine derivatives” (DOW AGROSCIENCES LLC, priority 2008, dated 2015).
Like-named read-outs stand apart in the source and are kept apart here.

Assays:
[1] = tested on: Mycosphaerella graminicola; Anamorph: Septoria tritici; Bayer Code SEPTTR; test: Leaf blotch of wheat, foliar fungicide treatment, one day protectant (1DP) or three day curative (3DC); assay type: in vivo, Septoria tritici on wheat plants (variety Yuma); conditions: Zymoseptoria tritici, percent disease control rating
[2] = tested on: Cercospora beticola; Bayer Code CERCBE; test: Leaf spot of sugar beets; assay type: in vivo, Cercospora beticola on sugar beets (variety HH-88); conditions: 24 h, % disease control rating, one day protectant; for pest or weed control at 25 ppm: read-out: CERCBE 1 DP 25 ppm; for pest or weed control at 75 ppm: read-out: CERCBE 1 DP 75 ppm
[3] = tested on: Venturia inaequalis; Bayer Code VENTIN; test: Apple scab; assay type: in vivo; conditions: 24 h, % disease control rating, one day protectant; for pest or weed control at 25 ppm: read-out: VENTIN 1 DP 25 ppm; for pest or weed control at 75 ppm: read-out: VENTIN 1 DP 75 ppm
[4] = 24 h, one day protectant (1DP), read-out: SETTTR 1DP 25 ppm
[5] = 24 h, one day protectant (1DP), read-out: SEPTTR 1DP 100 ppm
[6] = 72 h, three day curative (3DC), read-out: SEPTTR 3DC 25 ppm
[7] = 72 h, three day curative (3DC), read-out: SEPTTR 3DC 100 ppm

Structure (SMILES): CC(Oc1ncc(F)c(NCOCc2ccccc2)n1)c1ccc(F)cc1 (stereo not drawn) [Compound 121]
- pest or weed control at 25 ppm [1, 4]: 51 to 75%
- pest or weed control at 100 ppm [1, 5]: 76 to 100%
- pest or weed control at 25 ppm [1, 6]: 51 to 75%
- pest or weed control at 100 ppm [1, 7]: 76 to 100%
- pest or weed control at 25 ppm [2]: 0 to 25%
- pest or weed control at 75 ppm [2]: 0 to 25%
- pest or weed control at 25 ppm [3]: 76 to 100%
- pest or weed control at 75 ppm [3]: 26 to 50%

Structure (SMILES): CCCNC(=S)Nc1nc(OCc2ccn(C)n2)ncc1F [Compound 122]
- pest or weed control at 25 ppm [1, 4]: 0 to 25%
- pest or weed control at 100 ppm [1, 5]: 51 to 75%
- pest or weed control at 25 ppm [1, 6]: 26 to 50%
- pest or weed control at 100 ppm [1, 7]: 76 to 100%
- pest or weed control at 25 ppm [2]: 26 to 50%
- pest or weed control at 75 ppm [2]: 26 to 50%
- pest or weed control at 25 ppm [3]: 76 to 100%
- pest or weed control at 75 ppm [3]: 76 to 100%

Structure (SMILES): O=[N+]([O-])c1ccccc1SNc1nc(OCc2cc(C(F)(F)F)cc(C(F)(F)F)c2)ncc1F [Compound 125]
- pest or weed control at 25 ppm [1, 4]: 26 to 50%
- pest or weed control at 100 ppm [1, 5]: 26 to 50%
- pest or weed control at 25 ppm [1, 6]: 0 to 25%
- pest or weed control at 100 ppm [1, 7]: 0 to 25%
- pest or weed control at 25 ppm [2]: 26 to 50%
- pest or weed control at 75 ppm [2]: 26 to 50%
- pest or weed control at 25 ppm [3]: 26 to 50%
- pest or weed control at 75 ppm [3]: 76 to 100%

Structure (SMILES): Fc1ccc(COc2ccc(F)c(NC(=S)Nc3ccccc3F)c2)cc1 [Compound 135]
- pest or weed control at 25 ppm [1, 4]: 76 to 100%
- pest or weed control at 100 ppm [1, 5]: 76 to 100%
- pest or weed control at 25 ppm [1, 6]: 51 to 75%
- pest or weed control at 100 ppm [1, 7]: 76 to 100%
- pest or weed control at 25 ppm [2]: 26 to 50%
- pest or weed control at 75 ppm [2]: 26 to 50%
- pest or weed control at 25 ppm [3]: 51 to 75%
- pest or weed control at 75 ppm [3]: 51 to 75%

Structure (SMILES): CCCCCCOc1ncc(F)c(N)n1 [Compound 137]
- pest or weed control at 25 ppm [1, 4]: 26 to 50%
- pest or weed control at 100 ppm [1, 5]: 76 to 100%
- pest or weed control at 25 ppm [1, 6]: 26 to 50%
- pest or weed control at 100 ppm [1, 7]: 76 to 100%
- pest or weed control at 25 ppm [2]: 0 to 25%
- pest or weed control at 75 ppm [2]: 0 to 25%
- pest or weed control at 25 ppm [3]: 0 to 25%
- pest or weed control at 75 ppm [3]: 76 to 100%

Structure (SMILES): Nc1nc(OCc2nc(Cl)ccc2Cl)ncc1F [Compound 141]
- pest or weed control at 25 ppm [1, 4]: 0 to 25%
- pest or weed control at 100 ppm [1, 5]: 76 to 100%
- pest or weed control at 25 ppm [1, 6]: 51 to 75%
- pest or weed control at 100 ppm [1, 7]: 26 to 50%
- pest or weed control at 25 ppm [2]: 0 to 25%
- pest or weed control at 75 ppm [2]: 0 to 25%
- pest or weed control at 25 ppm [3]: 0 to 25%
- pest or weed control at 75 ppm [3]: 26 to 50%

Structure (SMILES): CNc1nc(OCc2ccc(OC)c(C(F)(F)F)c2)ncc1F [Compound 155]
- pest or weed control at 25 ppm [1, 4]: 51 to 75%
- pest or weed control at 100 ppm [1, 5]: 76 to 100%
- pest or weed control at 25 ppm [1, 6]: 76 to 100%
- pest or weed control at 100 ppm [1, 7]: 76 to 100%
- pest or weed control at 25 ppm [2]: 0 to 25%
- pest or weed control at 75 ppm [2]: 0 to 25%
- pest or weed control at 25 ppm [3]: 26 to 50%
- pest or weed control at 75 ppm [3]: 0 to 25%

Structure (SMILES): O=C(Nc1nc(OCc2cccc(F)c2)ncc1F)c1ccccc1 [Compound 158]
- pest or weed control at 25 ppm [1, 4]: 76 to 100%
- pest or weed control at 100 ppm [1, 5]: 76 to 100%
- pest or weed control at 25 ppm [1, 6]: 76 to 100%
- pest or weed control at 100 ppm [1, 7]: 76 to 100%
- pest or weed control at 25 ppm [2]: 0 to 25%
- pest or weed control at 75 ppm [2]: 0 to 25%
- pest or weed control at 25 ppm [3]: 51 to 75%
- pest or weed control at 75 ppm [3]: 51 to 75%

Structure (SMILES): CCCNC(=O)Nc1nc(OCc2cccc(C#N)c2)ncc1F [Compound 163]
- pest or weed control at 25 ppm [1, 4]: 0 to 25%
- pest or weed control at 100 ppm [1, 5]: 0 to 25%
- pest or weed control at 25 ppm [1, 6]: 0 to 25%
- pest or weed control at 100 ppm [1, 7]: 0 to 25%
- pest or weed control at 25 ppm [2]: 0 to 25%
- pest or weed control at 75 ppm [2]: 0 to 25%
- pest or weed control at 25 ppm [3]: 0 to 25%
- pest or weed control at 75 ppm [3]: 26 to 50%

Structure (SMILES): CN(Cc1ccccc1F)c1nc(OCc2ccc(F)cc2)ncc1F [Compound 164]
- pest or weed control at 25 ppm [1, 4]: 26 to 50%
- pest or weed control at 100 ppm [1, 5]: 51 to 75%
- pest or weed control at 25 ppm [1, 6]: 0 to 25%
- pest or weed control at 100 ppm [1, 7]: 51 to 75%
- pest or weed control at 25 ppm [2]: 0 to 25%
- pest or weed control at 75 ppm [2]: 0 to 25%
- pest or weed control at 25 ppm [3]: 26 to 50%
- pest or weed control at 75 ppm [3]: 51 to 75%

Structure (SMILES): Fc1ccccc1CNC(=S)Nc1nc(OCc2cccs2)ncc1F [Compound 169]
- pest or weed control at 25 ppm [1, 4]: 51 to 75%
- pest or weed control at 100 ppm [1, 5]: 76 to 100%
- pest or weed control at 25 ppm [1, 6]: 0 to 25%
- pest or weed control at 100 ppm [1, 7]: 0 to 25%
- pest or weed control at 25 ppm [2]: 0 to 25%
- pest or weed control at 75 ppm [2]: 0 to 25%
- pest or weed control at 25 ppm [3]: 51 to 75%
- pest or weed control at 75 ppm [3]: 26 to 50%

Structure (SMILES): O=C(Nc1nc(OCc2cccc(F)c2)ncc1F)OCc1ccc([N+](=O)[O-])cc1 [Compound 180]
- pest or weed control at 25 ppm [1, 4]: 0 to 25%
- pest or weed control at 100 ppm [1, 5]: 51 to 75%
- pest or weed control at 25 ppm [1, 6]: 0 to 25%
- pest or weed control at 100 ppm [1, 7]: 0 to 25%
- pest or weed control at 25 ppm [2]: 0 to 25%
- pest or weed control at 75 ppm [2]: 26 to 50%
- pest or weed control at 25 ppm [3]: 26 to 50%
- pest or weed control at 75 ppm [3]: 0 to 25%
